Common to all, as to experiment: relative viability (nuclei count vs DMSO), 5 days (fraction); higher = more cells survive
Compound in the experiment “Veliparib + Pictilisib”: C[C@]1(c2nc3c(C(N)=O)cccc3[nH]2)CCCN1 [Veliparib] + CS(=O)(=O)N1CCN(Cc2cc3nc(-c4cccc5[nH]ncc45)nc(N4CCOCC4)c3s2)CC1 [Pictilisib] (partner 1 µM)
An outline of the steps:
(§1)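 One day after seeding in 1536-well plates, lung cancer cell lines were dosed by pin tool. Dosing was either single-drug or a fixed anchor-drug dose plus five library-drug doses (not always all listed) in √10 steps. After 5 days, nuclei were stained in one fix-and-stain step and counted on 4× images, and relative viability is the nuclei count of treated wells over that of vehicle wells, given as the median of duplicate plates.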

Compound in experiment [1]: COC1=CC=C(C=C1)CN2C=CC3=C2C=C(C=C3)C(=O)NO + CC(=O)c1c(C)c2cnc(Nc3ccc(N4CCNCC4)cn3)nc2n(C2CCCC2)c1=O [Palbociclib] (partner 0.5 µM)
An outline of the steps:
as §1

Compound in the experiment “Veliparib + Olaparib”: C[C@]1(c2nc3c(C(N)=O)cccc3[nH]2)CCCN1 [Veliparib] + O=C(c1cc(Cc2n[nH]c(=O)c3ccccc23)ccc1F)N1CCN(C(=O)C2CC2)CC1 [Olaparib] (partner 8 µM)
An outline of the steps:
as §1

Compound in the experiment “Veliparib + Palbociclib”: C[C@]1(c2nc3c(C(N)=O)cccc3[nH]2)CCCN1 [Veliparib] + CC(=O)c1c(C)c2cnc(Nc3ccc(N4CCNCC4)cn3)nc2n(C2CCCC2)c1=O [Palbociclib] (partner 0.5 µM)
An outline of the steps: as §1

For the cell line NCI-H3122, the relative viability in the experiment with Veliparib + Pictilisib (first compound 0.02 µM) was 0.576; with Veliparib + Pictilisib (first compound 0.06325 µM), 0.599; with Veliparib + Pictilisib (first compound 0.2 µM), 0.673; with Veliparib + Pictilisib (first compound 0.6325 µM) it was 0.552; with Veliparib + Pictilisib (first compound 2 µM) it was 0.611; in experiment [1] (first compound 0.08 µM), 0.196. For the same cell line, the relative viability came to 0.173 in experiment [1] (first compound 0.253 µM); 0.204 in experiment [1] (first compound 0.8 µM); 0.167 in experiment [1] (first compound 2.53 µM); 0.194 in experiment [1] (first compound 8 µM); 0.628 with Veliparib + Olaparib (first compound 0.02 µM); 0.571 with Veliparib + Olaparib (first compound 0.06325 µM). Further, the relative viability in the experiment with Veliparib + Olaparib (first compound 0.2 µM) was 0.549; with Veliparib + Olaparib (first compound 0.6325 µM), 0.619; in the experiment with Veliparib + Olaparib (first compound 2 µM), 0.623; in the experiment with Veliparib + Palbociclib (first compound 0.02 µM), 0.166; in the experiment with Veliparib + Palbociclib (first compound 0.06325 µM) it was 0.147; in the experiment with Veliparib + Palbociclib (first compound 0.2 µM), 0.207. Moreover, the relative viability came to 0.179 with Veliparib + Palbociclib (first compound 0.6325 µM) and 0.192 in the experiment with Veliparib + Palbociclib (first compound 2 µM).

Take PC-3 [JPC-3]: the relative viability in the experiment with Veliparib + Pictilisib (first compound 0.02 µM) stood at 0.774; with Veliparib + Pictilisib (first compound 0.06325 µM), 0.689; with Veliparib + Pictilisib (first compound 0.2 µM), 0.774; with Veliparib + Pictilisib (first compound 0.6325 µM), 0.69; in the experiment with Veliparib + Pictilisib (first compound 2 µM), 0.758; in experiment [1] (first compound 0.08 µM), 0.562. Moreover, the relative viability in experiment [1] (first compound 0.8 µM) was 0.559; in experiment [1] (first compound 2.53 µM) it was 0.55; in experiment [1] (first compound 8 µM), 0.535; in the experiment with Veliparib + Olaparib (first compound 0.02 µM), 1.17; in the experiment with Veliparib + Olaparib (first compound 0.2 µM), 1.22; with Veliparib + Olaparib (first compound 0.6325 µM), 1.06. The relative viability in the experiment with Veliparib + Olaparib (first compound 2 µM) was found to be 1.07; in the experiment with Veliparib + Palbociclib (first compound 0.02 µM) it was 0.54; in the experiment with Veliparib + Palbociclib (first compound 0.2 µM), 0.493; in the experiment with Veliparib + Palbociclib (first compound 0.6325 µM), 0.566; with Veliparib + Palbociclib (first compound 2 µM) it was 0.543.

For the cell line PC-14, the relative viability in the experiment with Veliparib + Pictilisib (first compound 0.02 µM) was found to be 0.624; in the experiment with Veliparib + Pictilisib (first compound 0.06325 µM), 0.513; with Veliparib + Pictilisib (first compound 0.2 µM), 0.616; in the experiment with Veliparib + Pictilisib (first compound 0.6325 µM) it was 0.673; in the experiment with Veliparib + Pictilisib (first compound 2 µM) it was 0.662; in experiment [1] (first compound 0.08 µM), 0.533. Also, the relative viability was found to be 0.599 in experiment [1] (first compound 0.253 µM); 0.567 in experiment [1] (first compound 0.8 µM); 0.509 in experiment [1] (first compound 2.53 µM); 0.535 in experiment [1] (first compound 8 µM); 0.342 in the experiment with Veliparib + Olaparib (first compound 0.02 µM); 0.326 with Veliparib + Olaparib (first compound 0.06325 µM). Moreover, the relative viability in the experiment with Veliparib + Olaparib (first compound 0.2 µM) is 0.368; with Veliparib + Olaparib (first compound 0.6325 µM), 0.38; with Veliparib + Olaparib (first compound 2 µM) it was 0.204; in the experiment with Veliparib + Palbociclib (first compound 0.06325 µM) it was 0.514; with Veliparib + Palbociclib (first compound 0.2 µM), 0.51; in the experiment with Veliparib + Palbociclib (first compound 0.6325 µM) it was 0.465. Moreover, in the experiment with Veliparib + Palbociclib (first compound 2 µM), the relative viability was 0.523.

As to RERF-LC-KJ, the relative viability in the experiment with Veliparib + Pictilisib (first compound 0.02 µM) is 0.59; with Veliparib + Pictilisib (first compound 0.06325 µM) it was 0.529; in the experiment with Veliparib + Pictilisib (first compound 0.2 µM), 0.592; with Veliparib + Pictilisib (first compound 0.6325 µM) it was 0.563; in the experiment with Veliparib + Pictilisib (first compound 2 µM), 0.454; in experiment [1] (first compound 0.08 µM), 1.05. For the same cell line, the relative viability in experiment [1] (first compound 0.253 µM) turned out to be 1.1; in experiment [1] (first compound 0.8 µM) it was 1.07; in experiment [1] (first compound 2.53 µM) it was 1.09; in experiment [1] (first compound 8 µM), 1.05; with Veliparib + Olaparib (first compound 0.02 µM) it was 1.03; with Veliparib + Olaparib (first compound 0.06325 µM) it was 0.795. The relative viability came to 0.814 with Veliparib + Olaparib (first compound 0.2 µM); 0.881 with Veliparib + Olaparib (first compound 0.6325 µM); 0.85 with Veliparib + Olaparib (first compound 2 µM); 1.07 with Veliparib + Palbociclib (first compound 0.02 µM); 1.03 in the experiment with Veliparib + Palbociclib (first compound 0.06325 µM); 1.06 with Veliparib + Palbociclib (first compound 0.2 µM). Besides, the relative viability was 1.09 with Veliparib + Palbociclib (first compound 0.6325 µM) and 1.13 in the experiment with Veliparib + Palbociclib (first compound 2 µM).

Regarding SK-LU-1, the relative viability with Veliparib + Pictilisib (first compound 0.02 µM) is 0.624; with Veliparib + Pictilisib (first compound 0.06325 µM), 0.573; with Veliparib + Pictilisib (first compound 0.2 µM), 0.483; with Veliparib + Pictilisib (first compound 0.6325 µM) it was 0.585; in the experiment with Veliparib + Pictilisib (first compound 2 µM) it was 0.536; in experiment [1] (first compound 0.08 µM) it was 0.385. The relative viability is 0.374 in experiment [1] (first compound 0.253 µM); 0.422 in experiment [1] (first compound 0.8 µM); 0.434 in experiment [1] (first compound 2.53 µM); 0.341 in experiment [1] (first compound 8 µM); 0.492 in the experiment with Veliparib + Olaparib (first compound 0.02 µM); 0.415 in the experiment with Veliparib + Olaparib (first compound 0.06325 µM). Further, the relative viability with Veliparib + Olaparib (first compound 0.2 µM) stood at 0.491; with Veliparib + Olaparib (first compound 0.6325 µM) it was 0.364; in the experiment with Veliparib + Olaparib (first compound 2 µM) it was 0.424; with Veliparib + Palbociclib (first compound 0.02 µM), 0.426; in the experiment with Veliparib + Palbociclib (first compound 0.06325 µM), 0.379; with Veliparib + Palbociclib (first compound 0.2 µM) it was 0.394. Moreover, the figures for the relative viability in the experiment with Veliparib + Palbociclib (first compound 0.6325 µM) and in the experiment with Veliparib + Palbociclib (first compound 2 µM) were 0.362 and 0.378, respectively.

As for SK-MES-1, the relative viability came out at 0.373 with Veliparib + Pictilisib (first compound 0.02 µM); 0.295 with Veliparib + Pictilisib (first compound 0.06325 µM); 0.402 with Veliparib + Pictilisib (first compound 0.2 µM); 0.336 with Veliparib + Pictilisib (first compound 0.6325 µM); 0.347 with Veliparib + Pictilisib (first compound 2 µM); 0.357 in experiment [1] (first compound 0.08 µM). Also, the relative viability in experiment [1] (first compound 0.253 µM) was found to be 0.324; in experiment [1] (first compound 0.8 µM) it was 0.299; in experiment [1] (first compound 2.53 µM) it was 0.287; in experiment [1] (first compound 8 µM) it was 0.31; in the experiment with Veliparib + Olaparib (first compound 0.02 µM), 0.931; in the experiment with Veliparib + Olaparib (first compound 0.06325 µM) it was 0.748. The relative viability is 0.77 in the experiment with Veliparib + Olaparib (first compound 0.2 µM); 0.632 with Veliparib + Olaparib (first compound 0.6325 µM); 0.686 in the experiment with Veliparib + Olaparib (first compound 2 µM); 0.334 with Veliparib + Palbociclib (first compound 0.02 µM); 0.278 with Veliparib + Palbociclib (first compound 0.06325 µM); 0.329 with Veliparib + Palbociclib (first compound 0.2 µM). Moreover, the results for the relative viability with Veliparib + Palbociclib (first compound 0.6325 µM) and with Veliparib + Palbociclib (first compound 2 µM) were 0.307 and 0.297, respectively.

Consider UMC-11, for which the relative viability with Veliparib + Pictilisib (first compound 0.02 µM) is 0.779; in the experiment with Veliparib + Pictilisib (first compound 0.06325 µM), 0.891; with Veliparib + Pictilisib (first compound 0.2 µM), 0.817; with Veliparib + Pictilisib (first compound 0.6325 µM), 0.876; with Veliparib + Pictilisib (first compound 2 µM) it was 0.883; in experiment [1] (first compound 0.253 µM), 0.361. Further, the relative viability in experiment [1] (first compound 0.8 µM) is 0.29; in experiment [1] (first compound 2.53 µM), 0.331; in experiment [1] (first compound 8 µM), 0.343; with Veliparib + Olaparib (first compound 0.02 µM), 0.627; in the experiment with Veliparib + Olaparib (first compound 0.06325 µM), 0.336; in the experiment with Veliparib + Olaparib (first compound 0.2 µM) it was 0.485. For the same cell line, the relative viability was determined as 0.359 with Veliparib + Olaparib (first compound 0.6325 µM); 0.438 with Veliparib + Olaparib (first compound 2 µM); 0.314 with Veliparib + Palbociclib (first compound 0.02 µM); 0.303 in the experiment with Veliparib + Palbociclib (first compound 0.06325 µM); 0.318 in the experiment with Veliparib + Palbociclib (first compound 0.2 µM); 0.331 with Veliparib + Palbociclib (first compound 0.6325 µM). The relative viability with Veliparib + Palbociclib (first compound 2 µM) was 0.368.

The record behind these values is the supplement of paper PMC10307832.
